# Patent publication US20110086759A1, “CHEMICAL COMPOUNDS” (SYNGENTA CROP PROTECTION, INC., priority 2007, published 2011)
# Legend:
# Format in all cases: in vivo
# [1] = tested on: Ipomea hederaceae (IPOHE); assay: Post-emergence biological efficacy, glasshouse pot test; settings: Ipomoea hederacea, 312 h; post-emergence, 1,000 g/ha, evaluated after 13 days (100=total damage; 0=no damage); read-out: Percentage damage caused to weed species, IPOHE
# In short: (§1)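 Scored 13 days after spraying on a 0 (no damage) to 100 (total damage) scale. Treatment was a post-emergence spray at 1000 or 250 g/ha, from acetone/water 50:50 plus 0.5% Tween 20, onto 8-day-old plants in soil pots. Growth at 24/16° C, 14 h photoperiod, 65% humidity, watered twice daily.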
# [2] = tested on: Alopecurus myosuroides (ALOMY); assay: as above; settings: 312 h, post-emergence, 1,000 g/ha, evaluated after 13 days (100=total damage; 0=no damage), read-out: Percentage damage caused to weed species, ALOMY
# In short: as §1
# [3] = tested on: Echinochloa crus-galli (ECHCG); assay: as above; settings: 312 h, post-emergence, 1,000 g/ha, evaluated after 13 days (100=total damage; 0=no damage), read-out: Percentage damage caused to weed species, ECHCG
# In short: as §1
# [4] = tested on: Solanum nigrum (SOLNI); assay: as above; settings: 312 h, post-emergence, 1,000 g/ha, evaluated after 13 days (100=total damage; 0=no damage), read-out: Percentage damage caused to weed species, SOLNI
# In short: as §1
# [5] = tested on: Amaranthus retoflexus (AMARE); assay: as above; settings: Amaranthus retroflexus, 312 h; post-emergence, 1,000 g/ha, evaluated after 13 days (100=total damage; 0=no damage); read-out: Percentage damage caused to weed species, AMARE
# In short: as §1
# [6] = tested on: Setaria faberi (SETFA); assay: as above; settings: 312 h, post-emergence, 1,000 g/ha, evaluated after 13 days (100=total damage; 0=no damage), read-out: Percentage damage caused to weed species, SETFA
# In short: as §1
# [7] = tested on: Ipomea hederaceae (IPOHE); assay: Pre-emergence biological efficacy, glasshouse pot test; settings: Ipomoea hederacea, 312 h; pre-emergence, 1,000 g/ha, evaluated after 13 days (100=total damage; 0=no damage); read-out: Percentage damage IPOHE
# In short: (§2)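 Scores on a 0–100 damage scale were taken 13 days after spraying. Application rate 1000 or 250 g/ha, one day after sowing, in acetone/water-based aqueous spray containing 0.5% Tween 20.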
# [8] = tested on: Alopecurus myosuroides (ALOMY); assay: as above; settings: 312 h, pre-emergence, 1,000 g/ha, evaluated after 13 days (100=total damage; 0=no damage), read-out: Percentage damage ALOMY
# In short: as §2
# [9] = tested on: Echinochloa crus-galli (ECHCG); assay: as above; settings: 312 h, pre-emergence, 1,000 g/ha, evaluated after 13 days (100=total damage; 0=no damage), read-out: Percentage damage ECHCG
# In short: as §2
# [10] = tested on: Solanum nigrum (SOLNI); assay: as above; settings: 312 h, pre-emergence, 1,000 g/ha, evaluated after 13 days (100=total damage; 0=no damage), read-out: Percentage damage SOLNI
# In short: as §2
# [11] = tested on: Amaranthus retoflexus (AMARE); assay: as above; settings: Amaranthus retroflexus, 312 h; pre-emergence, 1,000 g/ha, evaluated after 13 days (100=total damage; 0=no damage); read-out: Percentage damage AMARE
# In short: as §2
# [12] = tested on: Setaria faberi (SETFA); assay: as above; settings: 312 h, pre-emergence, 1,000 g/ha, evaluated after 13 days (100=total damage; 0=no damage), read-out: Percentage damage SETFA
# In short: as §2
SMILES,pest or weed control at 1000 g/ha [1] [%],pest or weed control at 1000 g/ha [2] [%],pest or weed control at 1000 g/ha [3] [%],pest or weed control at 1000 g/ha [4] [%],pest or weed control at 1000 g/ha [5] [%],pest or weed control at 1000 g/ha [6] [%],pest or weed control at 1000 g/ha [7] [%],pest or weed control at 1000 g/ha [8] [%],pest or weed control at 1000 g/ha [9] [%],pest or weed control at 1000 g/ha [10] [%],pest or weed control at 1000 g/ha [11] [%],pest or weed control at 1000 g/ha [12] [%]
"COC(=O)c1nc(C2CC2)nc(NCCc2c[nH]c3ccccc23)c1Cl [Compound 4-226, 5-Chloro-2-cyclopropyl-4-[2-(indol-3-yl)ethylamino]-6-methoxycarbonyl-pyrimidine]",60,30,10,80,100,50,100,0,10,60,70,0
"COC(=O)c1nc(C2CC2)nc(NCCc2c[nH]c3ccc(OC)cc23)c1Cl [Compound 4-227, 5-Chloro-2-cyclopropyl-6-methoxycarbonyl-4-[2-(5-methoxyindol-3-yl)-ethylamino]-pyrimidine]",70,10,30,80,70,40,50,0,0,30,20,0
"COC(=O)c1nc(C2CC2)nc(NCCc2ccccn2)c1Cl [Compound 4-228, 5-Chloro-2-cyclopropyl-6-methoxycarbonyl-4-[2-(pyrid-2-yl)ethylamino]-pyrimidine]",70,10,40,80,90,50,40,0,0,40,70,0
"COC(=O)c1nc(C2CC2)nc(NCCc2cc(C(F)(F)F)cc(Cl)n2)c1Cl [Compound 4-229, 5-Chloro-4-[2-(6-chloro-4-trifluoromethyl-pyrid-2-yl)ethylamino]-2-cyclopropyl-6-methoxycarbonyl-pyrimidine]",60,10,20,90,100,70,20,0,0,20,30,10
"COC(=O)c1nc(C2CC2)nc(NC(C)CC2CCCC2)c1Cl (stereo not drawn) [Compound 4-230, 5-Chloro-4-(2-cyclopentyl-1-methyl-ethylamino)-2-cyclopropyl-6-methoxycarbonyl-pyrimidine]",40,0,0,40,40,0,40,0,0,0,10,0
